In US20040077650A1, “Cannabinoid receptor ligands and uses thereof” (Pfizer Inc., priority 2002, published 2004):

Molecular target: T1, CB-1 receptor (Rattus norvegicus, UniProt P20272)
T1 construct: tissue Pel Freeze Biologicals, Rogers, Ark; host or cells: rat brain membrane homogenate
Assay: CB-1 receptor binding assay ([3H]SR141716A displacement)
Details: inhibition of [3H] SR141716A binding, rat brain tissue, 20° C. for 60 minutes
Description: The following assays were designed to detect compounds that inhibit the binding of [3H] SR141716A (selective CB-1 radiolabeled ligand) and [3H] 5-(1,1-dimethyl-heptyl)-2-[5-hydroxy-2-(3-hydroxy-propyl)-cyclohexyl]-phenol (CB-1/CB-2 radiolabeled ligand) to their respective receptors.
PelFreeze brains (available from Pel Freeze Biologicals, Rogers, Ark.) were cut up and placed in tissue preparation buffer (5 mM Tris HCl, pH=7.4 and 2 mM EDTA), polytroned at high speed and kept on ice for 15 minutes. The homogenate was then spun at 1,000×g for 5 minutes at 4° C. The supernatant was recovered and centrifuged at 100,000×G for 1 hour at 4° C. The pellet was then re-suspended in 25 ml of TME ([…] Tris, pH=7.4, 5 mM MgCl2, and 1 mM EDTA) per brain used. A protein assay was performed and 200 μl of tissue totaling 20 μg was added to the assay.
The test compounds were diluted in drug buffer (0.5% BSA, 10% DMSO and TME) and then 25 μl were added to a deep well polypropylene plate. [3H] SR141716A was diluted in a ligand buffer (0.5% BSA plus TME) and 25 μl were added to the plate. A BCA protein assay was used to determine the appropriate tissue concentration and then 200 μl of rat brain tissue at the appropriate concentration was added to the plate. […] In the morning the filters were counted on a Wallac Betaplate™ counter (available from PerkinElmer Life Sciences™, Boston, Mass.).

T1 sequence (P20272 whole entry): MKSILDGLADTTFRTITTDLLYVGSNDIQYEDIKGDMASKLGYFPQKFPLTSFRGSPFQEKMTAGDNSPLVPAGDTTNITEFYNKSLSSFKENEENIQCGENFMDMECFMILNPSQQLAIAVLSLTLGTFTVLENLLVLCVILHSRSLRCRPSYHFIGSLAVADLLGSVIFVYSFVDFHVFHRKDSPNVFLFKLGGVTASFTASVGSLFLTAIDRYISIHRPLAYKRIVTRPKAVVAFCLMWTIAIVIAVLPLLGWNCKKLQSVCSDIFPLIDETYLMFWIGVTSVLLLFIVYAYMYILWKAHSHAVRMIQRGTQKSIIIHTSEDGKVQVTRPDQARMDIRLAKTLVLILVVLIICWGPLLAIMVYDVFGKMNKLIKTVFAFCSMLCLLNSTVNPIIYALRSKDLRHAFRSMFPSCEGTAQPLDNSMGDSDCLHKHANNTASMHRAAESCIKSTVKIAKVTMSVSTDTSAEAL

binding affinity: 371 nM
SMILES: Cc1c(-c2ncn(C)c2-c2ccccc2)nn(-c2ccccc2Cl)c1-c1ccc(Cl)cc1 [Example 1B-13, 5-(4-Chloro-phenyl)-1-(2-chloro-phenyl)-4-methyl-3-(1-methyl-5-phenyl-1H-imidazol-4-yl)-1H-pyrazole]
